Patent publication US6734190B2, “Dihydrodipyrazolopyridinylbenzamide and -sulfonamide inhibitors of B7-1” (Wyeth, priority 2002, dated 2004)

Molecular target: T1, B7-1/CD28 (Homo sapiens, UniProt P33681)
T1 sequence (P33681 35-242 limits assumed): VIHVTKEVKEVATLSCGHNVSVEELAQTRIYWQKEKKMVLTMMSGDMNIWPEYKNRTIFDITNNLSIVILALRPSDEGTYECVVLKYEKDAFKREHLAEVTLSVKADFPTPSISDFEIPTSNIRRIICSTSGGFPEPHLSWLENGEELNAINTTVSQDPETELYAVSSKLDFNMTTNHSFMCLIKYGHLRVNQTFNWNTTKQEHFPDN
Test: CD28/B7-1 ELISA (B7-1/CD28 binding inhibition)
Conditions: CD28-Fc coated wells; B7-1-Fc-biotin/streptavidin-alkaline phosphatase detection complex; 1% DMSO
Experimental: Evaluation of B7-1/CD28 Binding Inhibition for Test Compounds
Wells are coated with 300 ng CD28-Fc in carbonate buffer (pH 9.4) overnight at 4° C., blocked with 1% bovine serum albumin in tris-buffered saline (TBS) for 1 h at 22° C. and washed 3 times in TBS prior to assay. The detection complex is formed as follows: B7-1-Fc-biotin, prepared using NHS-LC-biotin (Pierce #21335) according to the manufacturers instructions (4.1 moles biotinimole Fc), is added at 0.8 ug/ml to streptavidin-alkaline phosphatase (Caltag Sa1008) at 1:1000 in TBS. A solution of test compound in dimethylsulfoxide (1% final) are added to this complex and incubated 30 min at 22° C. Detection complex (+/−inhibitors) is then added to the CD28 coated wells for 25 min at 22° C., washed 5 times with TBS, developed with the colorimetric substrate pNPP (Pierce #34045) in diethanolamine/MgCl2 buffer (pH 9.5) and read at 405 nm. The inhibition constant (IC50) is calculated by subtracting background binding and comparing to uninhibited (DMSO alone) controls. The inhibition constant represents the concentration of test compound required to achieve 50% inhibition.

SMILES | IC50 [nM]
Cn1ncc2c3[nH]n(-c4cccc(C(=O)N5CCOCC5)c4)c(=O)c3c(-c3cccc(C(F)(F)F)c3)nc21 [Example 6] | 54
Cn1ncc2c3[nH]n(-c4cccc(C(=O)Nc5ccc(O)cc5)c4)c(=O)c3c(-c3cccc(C(F)(F)F)c3)nc21 [Example 7, N-(4-hydroxyphenyl)-3-(6-methyl-3-oxo-4-[3-(trifluoromethyl)phenyl]-3,6-dihydrodipyrazolo[3,4-b:3,4-d]pyridin-2(1H)-yl)benzamide] | 38
COC(CN(C)C(=O)c1cccc(-n2[nH]c3c(c(-c4cccc(C(F)(F)F)c4)nc4c3cnn4C)c2=O)c1)OC [Example 8, N-(2,2-dimethoxyethyl)-N-methyl-3-(6-methyl-3-oxo-4-[3-(trfluoromethyl)phenyl]-3,6-dihydrodipyrazolo[3,4-b:3,4-d]pyridin-2(1H)-yl)benzamide] | 31
Cn1ncc2c3[nH]n(-c4cccc(C(=O)N5CCSCC5)c4)c(=O)c3c(-c3cccc(C(F)(F)F)c3)nc21 [Example 10] | 70
Cn1ncc2c3[nH]n(-c4cccc(C(=O)NCC5CC5)c4)c(=O)c3c(-c3cccc(C(F)(F)F)c3)nc21 [Example 12] | 80
CN(CCO)C(=O)c1cccc(-n2[nH]c3c(c(-c4cccc(C(F)(F)F)c4)nc4c3cnn4C)c2=O)c1 [Example 14] | 61
COC(=O)c1cn(C(=O)c2cccc(-n3[nH]c4c(c(-c5cccc(C(F)(F)F)c5)nc5c4cnn5C)c3=O)c2)c2ccccc12 [Example 15] | 63
CC(O)CNC(=O)c1cccc(-n2[nH]c3c(c(-c4cccc(C(F)(F)F)c4)nc4c3cnn4C)c2=O)c1 (stereo not drawn) [Example 19, N-(2-hydroxypropyl)-3-(6-methyl-3-oxo-4-[3-(trifluoromethyl)phenyl]-3,6-dihydrodipyrazolo[3,4-b:3,4-d]-pyridin-2(1H)-yl)benzamide] | 45
COCCNC(=O)c1cccc(-n2[nH]c3c(c(-c4cccc(C(F)(F)F)c4)nc4c3cnn4C)c2=O)c1 [Example 20] | 62
Cn1ncc2c3[nH]n(-c4ccc(Cl)c(C(=O)N5CCC[C@@H]5CO)c4)c(=O)c3c(-c3cccc(C(F)(F)F)c3)nc21 [Example 23, 2-(4-chloro-3-{[(2R)-2-(hydroxymethyl)pyrrolidin-1-yl]carbonyl}phenyl)-6-methyl-4-[3-(trifluoromethyl)phenyl]-1,6-dihydrodipyrazolo[3,4-b:3,4-d]pyridin-3(2H)-one] | 43
Cn1ncc2c3[nH]n(-c4ccc(C(=O)Nc5cccc(CO)c5)cc4)c(=O)c3c(-c3cccc(C(F)(F)F)c3)nc21 [Example 35, N-[3-(hydroxymethyl)phenyl]4-(6-methyl-3-oxo-4-[3-(trifluoromethyl)phenyl]-3,6-dihydrodipyrazolo[3,4-b:3,4-d]pyridin-2(1H)-yl)benzamide] | 17
Cn1ncc2c3[nH]n(-c4cccc(C(=O)NN)c4)c(=O)c3c(-c3cccc(C(F)(F)F)c3)nc21 [Example 44] | 80
COC(=O)CNC(=O)c1cccc(-n2[nH]c3c(c(-c4cccc(C(F)(F)F)c4)nc4c3cnn4C)c2=O)c1 [Example 45] | 100
Cn1ncc2c3[nH]n(-c4cccc(C(=O)NCCOCCOCCN)c4)c(=O)c3c(-c3cccc(C(F)(F)F)c3)nc21 [Example 46] | 150
Cn1ncc2c3[nH]n(-c4cccc(C(=O)Nc5ccc(F)c(F)c5)c4)c(=O)c3c(-c3cccc(C(F)(F)F)c3)nc21 [Example 47] | 280
CCOC(=O)c1cccc(NC(=O)c2cccc(-n3[nH]c4c(c(-c5cccc(C(F)(F)F)c5)nc5c4cnn5C)c3=O)c2)c1 [Example 48] | 440
Cn1ncc2c3[nH]n(-c4cccc(C(=O)NCc5ccccc5)c4)c(=O)c3c(-c3cccc(C(F)(F)F)c3)nc21 [Example 49] | 120
Cn1ncc2c3[nH]n(-c4cccc(C(=O)Nc5cccc(CO)c5)c4)c(=O)c3c(-c3cccc(C(F)(F)F)c3)nc21 [Example 50] | 100
CC(O)c1cccc(NC(=O)c2cccc(-n3[nH]c4c(c(-c5cccc(C(F)(F)F)c5)nc5c4cnn5C)c3=O)c2)c1 (stereo not drawn) [Example 51] | 130
Cn1ncc2c3[nH]n(-c4cccc(C(=O)N5CCc6ccccc6C5)c4)c(=O)c3c(-c3cccc(C(F)(F)F)c3)nc21 [Example 52] | 300

SMILES | IC50 [nM]
COC(=O)[C@H]1CCCN1C(=O)c1cccc(-n2[nH]c3c(c(-c4cccc(C(F)(F)F)c4)nc4c3cnn4C)c2=O)c1 [Example 53] | 270
Cn1ncc2c3[nH]n(-c4cccc(C(=O)N5CCC(C(=O)O)CC5)c4)c(=O)c3c(-c3cccc(C(F)(F)F)c3)nc21 [Example 54] | 860
Cn1ncc2c3[nH]n(-c4cccc(C(=O)Nc5ccc(CCO)cc5)c4)c(=O)c3c(-c3cccc(C(F)(F)F)c3)nc21 [Example 55] | 110
CN(Cc1ccccc1)C(=O)c1cccc(-n2[nH]c3c(c(-c4cccc(C(F)(F)F)c4)nc4c3cnn4C)c2=O)c1 [Example 56] | 180
CC1CCCN(C(=O)c2cccc(-n3[nH]c4c(c(-c5cccc(C(F)(F)F)c5)nc5c4cnn5C)c3=O)c2)C1 (stereo not drawn) [Example 57] | 92
CCN(CC)C(=O)C1CCCN(C(=O)c2cccc(-n3[nH]c4c(c(-c5cccc(C(F)(F)F)c5)nc5c4cnn5C)c3=O)c2)C1 (stereo not drawn) [Example 58] | 110
Cn1ncc2c3[nH]n(-c4cccc(C(=O)N5CCC(O)CC5)c4)c(=O)c3c(-c3cccc(C(F)(F)F)c3)nc21 [Example 59] | 105
COc1ccc(CNC(=O)c2cccc(-n3[nH]c4c(c(-c5cccc(C(F)(F)F)c5)nc5c4cnn5C)c3=O)c2)cc1 [Example 60] | 180
CN(CCC#N)C(=O)c1cccc(-n2[nH]c3c(c(-c4cccc(C(F)(F)F)c4)nc4c3cnn4C)c2=O)c1 [Example 61] | 330
Cn1ncc2c3[nH]n(-c4ccc(F)c(C(=O)Nc5ccc(CCO)cc5)c4)c(=O)c3c(-c3cccc(C(F)(F)F)c3)nc21 [Example 62] | 380
COCCCNC(=O)c1cccc(-n2[nH]c3c(c(-c4cccc(C(F)(F)F)c4)nc4c3cnn4C)c2=O)c1 [Example 63] | 180
COC(=O)[C@H]1CCCN1C(=O)c1cc(-n2[nH]c3c(c(-c4cccc(C(F)(F)F)c4)nc4c3cnn4C)c2=O)ccc1Cl [Example 64] | 180
CC(O)c1cccc(NC(=O)c2cc(-n3[nH]c4c(c(-c5cccc(C(F)(F)F)c5)nc5c4cnn5C)c3=O)ccc2F)c1 (stereo not drawn) [Example 65] | 1000
Cn1ncc2c3[nH]n(-c4ccc(F)c(C(=O)N5CCOCC5)c4)c(=O)c3c(-c3cccc(C(F)(F)F)c3)nc21 [Example 66] | 2400
Cn1ncc2c3[nH]n(-c4ccc(F)c(C(=O)Nc5ccc(CO)cc5)c4)c(=O)c3c(-c3cccc(C(F)(F)F)c3)nc21 [Example 68] | 370
Cn1ncc2c3[nH]n(-c4ccc(C(N)=O)cc4)c(=O)c3c(-c3cccc(C(F)(F)F)c3)nc21 [Example 70] | 38
Cn1ncc2c3[nH]n(-c4ccc(C(=O)Nc5cccc(O)c5)cc4)c(=O)c3c(-c3cccc(C(F)(F)F)c3)nc21 [Example 71] | 140
CN(CCC#N)C(=O)c1ccc(-n2[nH]c3c(c(-c4cccc(C(F)(F)F)c4)nc4c3cnn4C)c2=O)cc1 [Example 72] | 110
Cn1ncc2c3[nH]n(-c4ccc(C(=O)Nc5ccc(O)cc5)cc4)c(=O)c3c(-c3cccc(C(F)(F)F)c3)nc21 [Example 73] | 11
